{
  "source": "patent US9293280B2",
  "about": "“Mixture of hydrofluoroolefine and hydrofluorocarbide to improve the internal ARC resistance in medium and high voltage electric apparatus” (priority 2012, dated 2016)",
  "origin": "cited, not measured here",
  "key": {"animal population": {"test_system": "animal population", "details": "causing the death of 50% of an animal population"}, "human": {"test_system": "human", "details": "average limiting content, 8 hours of work for 5 days per week without harmful effect"}},
  "data": [
    {"smiles": "F/C=C/C(F)(F)F", "note": "[HFO-1234ze, trans-1,3,3,3-tetrafluoro-1-propene]", "values": [
      {"measurement": "lethal dose LD50", "setting": "animal population", "result": "> 200 000 ppm"},
      {"measurement": "average exposure value AEV", "setting": "human", "result": 1000, "unit": "ppm"}
    ]},
    {"smiles": "O=C(C(F)(F)F)C(F)(C(F)(F)F)C(F)(F)F", "note": "[C5K, decafluoro-2-methylbutan-3-one]", "values": [
      {"measurement": "lethal dose LD50", "setting": "animal population", "result": "greater than 200 000 ppm"},
      {"measurement": "average exposure value AEV", "setting": "human", "result": 1000, "unit": "ppm"}
    ]}
  ]
}
